# Species on record: Rattus norvegicus
# Assay: Open TG-GATES - Regimen: Daily Repeat
# Assay type: toxicity, organism-based, Sprague-Dawley
# Parameters: regimen Daily Repeat, gender Male, age 6 weeks
# Conditions: in vivo, po, 200 mg/kg, route gavage, dose level Middle; for APTT / Bas / Eos / Fbg / Hb / Ht / Lym / MCH / MCHC / MCV / Mono / Neu / PT / Plat / RBC / Ret / WBC: tissue Blood; for KIDNEY_L / KIDNEY_R / KIDNEY_TOTAL: tissue Kidney; for LIVER: tissue Liver; for A/G / ALP / ALT / AST / BUN / CRE / Ca / Cl / DBIL / GLC / IP / K / LDH / Na / PL / RALB / TBIL / TC / TG / TP / gamma-GTP: tissue Plasma
compound,measurement,setting,value
CCOC(=O)[C@H](CCc1ccccc1)N[C@@H](C)C(=O)N1CCC[C@H]1C(=O)O,TERMINAL_BW,"72 h, time 3 day",240.7 g
same,APTT,"72 h, time 3 day",15.8 s
same,Bas,"72 h, time 3 day",0%
same,Eos,"72 h, time 3 day",1%
same,Fbg,"72 h, time 3 day",231 mg/dL
same,Hb,"72 h, time 3 day",13.2 g/dL
same,Ht,"72 h, time 3 day",40.1%
same,Lym,"72 h, time 3 day",78%
same,MCH,"72 h, time 3 day",21.9 pg
same,MCHC,"72 h, time 3 day",32.9%
same,MCV,"72 h, time 3 day",66.6 fL
same,Mono,"72 h, time 3 day",8.4%
same,Neu,"72 h, time 3 day",12.6%
same,PT,"72 h, time 3 day",11.8 s
same,Plat,"72 h, time 3 day",114.3 x10_4/uL
same,RBC,"72 h, time 3 day",601.8 x10_4/ul
same,Ret,"72 h, time 3 day",5.9%
same,WBC,"72 h, time 3 day",85.6 x10_2/uL
same,KIDNEY_L,"72 h, time 3 day",1.1 g
same,KIDNEY_R,"72 h, time 3 day",1.1 g
same,KIDNEY_TOTAL,"72 h, time 3 day",2.2 g
same,LIVER,"72 h, time 3 day",11.8 g
same,A/G,"72 h, time 3 day",2
same,ALP,"72 h, time 3 day",912.6 IU/L
same,ALT,"72 h, time 3 day",35 IU/L
same,AST,"72 h, time 3 day",65.2 IU/L
same,BUN,"72 h, time 3 day",19.4 mg/dL
same,CRE,"72 h, time 3 day",0.5 mg/dL
same,Ca,"72 h, time 3 day",11 mg/dL
same,Cl,"72 h, time 3 day",104.4 meq/L
same,DBIL,"72 h, time 3 day",0.03 mg/dL
same,GLC,"72 h, time 3 day",193 mg/dL
same,IP,"72 h, time 3 day",8.7 mg/dL
same,K,"72 h, time 3 day",4.3 meq/L
same,LDH,"72 h, time 3 day",98.2 IU/L
same,Na,"72 h, time 3 day",140.8 meq/L
same,PL,"72 h, time 3 day",146 mg/dL
same,RALB,"72 h, time 3 day",4 g/dL
same,TBIL,"72 h, time 3 day",0.4 mg/dL
same,TC,"72 h, time 3 day",81.4 mg/dL
same,TG,"72 h, time 3 day",81.2 mg/dL
same,TP,"72 h, time 3 day",6 g/dL
same,gamma-GTP,"72 h, time 3 day",1.4 IU/L
same,TERMINAL_BW,"[…], time 7 day",259.9 g
same,TERMINAL_BW,"[…], time 14 day",304.7 g
same,TERMINAL_BW,"[…], time 28 day",336 g
same,APTT,"[…], time 7 day",16.8 s
same,Bas,"[…], time 7 day",0%
same,Eos,"[…], time 7 day",1%
same,Fbg,"[…], time 7 day",228 mg/dL
same,Hb,"[…], time 7 day",13.3 g/dL
same,Ht,"[…], time 7 day",40.2%
same,Lym,"[…], time 7 day",81.8%
same,MCH,"[…], time 7 day",20.4 pg
same,MCHC,"[…], time 7 day",33.1%
same,MCV,"[…], time 7 day",61.7 fL
same,Mono,"[…], time 7 day",6.2%
same,Neu,"[…], time 7 day",10.8%
same,PT,"[…], time 7 day",11.6 s
same,Plat,"[…], time 7 day",123.3 x10_4/uL
same,RBC,"[…], time 7 day",651.6 x10_4/ul
same,Ret,"[…], time 7 day",4.1%
same,WBC,"[…], time 7 day",108.2 x10_2/uL
same,APTT,"[…], time 14 day",16.2 s
same,Bas,"[…], time 14 day",0%
same,Eos,"[…], time 14 day",1.2%
same,Fbg,"[…], time 14 day",242.2 mg/dL
same,Hb,"[…], time 14 day",13.4 g/dL
same,Ht,"[…], time 14 day",40.5%
same,Lym,"[…], time 14 day",81%
same,MCH,"[…], time 14 day",20.2 pg
same,MCHC,"[…], time 14 day",33.2%
same,MCV,"[…], time 14 day",60.8 fL
same,Mono,"[…], time 14 day",6%
same,Neu,"[…], time 14 day",12%
same,PT,"[…], time 14 day",11.5 s
same,Plat,"[…], time 14 day",113 x10_4/uL
same,RBC,"[…], time 14 day",666.8 x10_4/ul
same,Ret,"[…], time 14 day",3.6%
same,WBC,"[…], time 14 day",116.4 x10_2/uL
same,APTT,"[…], time 28 day",15.5 s
same,Bas,"[…], time 28 day",0%
same,Eos,"[…], time 28 day",1%
same,Fbg,"[…], time 28 day",240.2 mg/dL
same,Hb,"[…], time 28 day",14.3 g/dL
same,Ht,"[…], time 28 day",42.9%
same,Lym,"[…], time 28 day",87.4%
same,MCH,"[…], time 28 day",19 pg
same,MCHC,"[…], time 28 day",33.3%
same,MCV,"[…], time 28 day",57.1 fL
same,Mono,"[…], time 28 day",4.2%
same,Neu,"[…], time 28 day",7.4%
same,PT,"[…], time 28 day",11.8 s
same,Plat,"[…], time 28 day",101.7 x10_4/uL
same,RBC,"[…], time 28 day",752.2 x10_4/ul
same,Ret,"[…], time 28 day",3.4%
same,WBC,"[…], time 28 day",172.8 x10_2/uL
same,KIDNEY_L,"[…], time 7 day",1.2 g
same,KIDNEY_R,"[…], time 7 day",1.2 g
same,KIDNEY_TOTAL,"[…], time 7 day",2.4 g
same,KIDNEY_L,"[…], time 14 day",1.3 g
same,KIDNEY_R,"[…], time 14 day",1.3 g
same,KIDNEY_TOTAL,"[…], time 14 day",2.6 g
same,KIDNEY_L,"[…], time 28 day",1.4 g
same,KIDNEY_R,"[…], time 28 day",1.4 g
same,KIDNEY_TOTAL,"[…], time 28 day",2.9 g
same,LIVER,"[…], time 7 day",11.6 g
same,LIVER,"[…], time 14 day",12.7 g
same,LIVER,"[…], time 28 day",12.8 g
same,A/G,"[…], time 7 day",2.2
same,ALP,"[…], time 7 day",881.8 IU/L
same,ALT,"[…], time 7 day",27.4 IU/L
same,AST,"[…], time 7 day",56.8 IU/L
same,BUN,"[…], time 7 day",24 mg/dL
same,CRE,"[…], time 7 day",0.5 mg/dL
same,Ca,"[…], time 7 day",10.3 mg/dL
same,Cl,"[…], time 7 day",104.4 meq/L
same,DBIL,"[…], time 7 day",0.002 mg/dL
same,GLC,"[…], time 7 day",207.4 mg/dL
same,IP,"[…], time 7 day",8.4 mg/dL
same,K,"[…], time 7 day",4.7 meq/L
same,LDH,"[…], time 7 day",88.8 IU/L
same,Na,"[…], time 7 day",136.6 meq/L
same,PL,"[…], time 7 day",141.6 mg/dL
same,RALB,"[…], time 7 day",3.9 g/dL
same,TBIL,"[…], time 7 day",0.4 mg/dL
same,TC,"[…], time 7 day",74.6 mg/dL
same,TG,"[…], time 7 day",81.8 mg/dL
same,TP,"[…], time 7 day",5.7 g/dL
same,gamma-GTP,"[…], time 7 day",1.4 IU/L
same,A/G,"[…], time 14 day",1.9
same,ALP,"[…], time 14 day",760.4 IU/L
same,ALT,"[…], time 14 day",28.4 IU/L
same,AST,"[…], time 14 day",57.2 IU/L
same,BUN,"[…], time 14 day",27.6 mg/dL
same,CRE,"[…], time 14 day",0.6 mg/dL
same,Ca,"[…], time 14 day",10.8 mg/dL
same,Cl,"[…], time 14 day",105.6 meq/L
same,DBIL,"[…], time 14 day",0.008 mg/dL
same,GLC,"[…], time 14 day",194.8 mg/dL
same,IP,"[…], time 14 day",8.3 mg/dL
same,K,"[…], time 14 day",4.6 meq/L
same,LDH,"[…], time 14 day",86.2 IU/L
same,Na,"[…], time 14 day",138 meq/L
same,PL,"[…], time 14 day",154.8 mg/dL
same,RALB,"[…], time 14 day",3.9 g/dL
same,TBIL,"[…], time 14 day",0.3 mg/dL
same,TC,"[…], time 14 day",83 mg/dL
same,TG,"[…], time 14 day",83.2 mg/dL
same,TP,"[…], time 14 day",6.1 g/dL
same,gamma-GTP,"[…], time 14 day",1.2 IU/L
same,A/G,"[…], time 28 day",1.8
same,ALP,"[…], time 28 day",617.8 IU/L
same,ALT,"[…], time 28 day",24 IU/L
same,AST,"[…], time 28 day",55.4 IU/L
same,BUN,"[…], time 28 day",45.2 mg/dL
same,CRE,"[…], time 28 day",0.7 mg/dL
same,Ca,"[…], time 28 day",10.2 mg/dL
same,Cl,"[…], time 28 day",105.8 meq/L
same,DBIL,"[…], time 28 day",0.078 mg/dL
same,GLC,"[…], time 28 day",206 mg/dL
same,IP,"[…], time 28 day",7.5 mg/dL
same,K,"[…], time 28 day",4.8 meq/L
same,LDH,"[…], time 28 day",62.4 IU/L
same,Na,"[…], time 28 day",137.6 meq/L
same,PL,"[…], time 28 day",145.6 mg/dL
same,RALB,"[…], time 28 day",3.8 g/dL
same,TBIL,"[…], time 28 day",0.3 mg/dL
same,TC,"[…], time 28 day",77 mg/dL
same,TG,"[…], time 28 day",87.2 mg/dL
same,TP,"[…], time 28 day",5.9 g/dL
same,gamma-GTP,"[…], time 28 day",2.2 IU/L

# Reference: ChEMBL document CHEMBL3885861, “Open TG-GATES”
